Results reported in ChEMBL document CHEMBL1145045 (J Med Chem, 2003).

Target: Major prion protein
Assay: Half maximal inhibition of Prion protein PrPsc formation was assayed in ScN2a cells
Type: cell-based

**Q.** `CC(CN1c2ccccc2Sc2ccccc21)N(C)C` (stereo not drawn) [PROMETHAZINE] was tested. Which EC50 did it give?
**A.** The EC50 was 8 µM.

**Q.** How did the EC50 turn out when `CN(C)CCCN1c2ccccc2Sc2ccc(Cl)cc21` [CHLORPROMAZINE] was run?
**A.** The EC50 was 2 µM.

**Q.** `O=C(CCCN1CCC(O)(c2ccc(Cl)cc2)CC1)c1ccc(F)cc1` [HALOPERIDOL] was tested. Which EC50 did it give?
**A.** Its EC50 is > 10 µM.

**Q.** For `NC(=O)N1c2ccccc2C=Cc2ccccc21` [CARBAMAZEPINE], which EC50 is on record?
**A.** Its EC50 is > 10 µM.

**Q.** For `c1ccc2nc3ccccc3nc2c1` [PHENAZINE], which EC50 is on record?
**A.** Its EC50 is > 10 µM.

**Q.** Which EC50 does the source give for `CC(=O)c1ccc2c(c1)N(CCCN(C)C)c1ccccc1S2` [ACEPROMAZINE] here?
**A.** Its EC50 is 5 µM.

**Q.** `CCN(CC)CCCC(C)Nc1ccnc2cc(Cl)ccc12` (stereo not drawn) [CHLOROQUINE] was tested. Which EC50 did it give?
**A.** Its EC50 is 4 µM.

**Q.** How did the EC50 turn out when `CN(C)CCCN1c2ccccc2Sc2ccccc21` [PROMAZINE] was run?
**A.** Its EC50 is 5 µM.
